The text below walks through data of patent publication US6933321B2, “Antiandrogenic biphenyls” (Endorecherche, Inc., priority 2002, dated 2005).

Structures are written as SMILES. Where two headings read alike, the source gives them in different places.

In the assay the test system is Shionogi mouse mammary carcinoma cells. The assay is described as follows: Antiandrogenic activity on DHT-stimulated Shionogi mouse mammary carcinoma cell number. The assay is classed as cell-based. The conditions noted are these: for A = Ki OH-Flu/Ki compound: ratio of Ki of hydroxyflutamide versus tested compound, higher values preferable.
The mark [1] stands for this setting: Mus musculus, inhibition of DHT-stimulated Shionogi cell number, 10-12 days, read-out: Antiandrogenic activity IC50.
[2] abbreviates: inhibition of DHT-stimulated Shionogi cell number.
The mark [3] stands for this setting: Mus musculus, read-out: Antiandrogenic activity IC50 (nM).

With `COc1ccc(-c2ccc([N+](=O)[O-])cc2)cc1` [EM-3234], the IC50 under setting [1] was greater than 500 nM. The “A = Ki OH-Flu/Ki compound” value under setting [2] is on record as less than 0.2.
For the compound `COc1ccc(-c2ccc([N+](=O)[O-])c(C(F)(F)F)c2)cc1` [EM-3393], under setting [1], the IC50 was 129 nM. Also, the “A = Ki OH-Flu/Ki compound” value under setting [2] is on record as 0.4.
On to `COc1ccc(-c2ccc(C#N)c(C(F)(F)F)c2)cc1` [EM-3394], for which the 50% inhibitory concentration (IC50) under setting [3] is 49.5 nM. For the same compound, under setting [2], the “A = Ki OH-Flu/Ki compound” value was determined as 1.1.
The matching figures for `N#Cc1ccc(-c2ccc(Cl)cc2)cc1C(F)(F)F` [EM-3703]: 97 nM and 0.3.
Consider `COc1ccc(-c2ccc(C#N)cc2)cc1` [EM-3704], for which the IC50 under setting [1] was greater than 500 nM. In addition, the “A = Ki OH-Flu/Ki compound” value under setting [2] was less than 0.2.
For the compound `N#Cc1ccc(-c2ccc(F)cc2)cc1C(F)(F)F` [EM-3705], the IC50 under setting [1] was determined as 129 nM. Further, the “A = Ki OH-Flu/Ki compound” value under setting [2] was determined as 0.7.
For `N#Cc1cccc(-c2ccc(C#N)c(C(F)(F)F)c2)c1` [EM-3729], in that order: greater than 500 nM and less than 0.2.
As to `N#Cc1ccc(-c2ccc(C#N)c(C(F)(F)F)c2)cc1` [EM-3730], the IC50 by setting is: under setting [1], 190 nM; (inhibition of DHT-stimulated Shionogi cell number, 10-12 days, read-out: Antiandrogenic activity IC50) 152 nM.
`CSc1ccc(-c2ccc(C#N)c(C(F)(F)F)c2)cc1` [EM-3732]: the IC50 under setting [1] was greater than 500 nM. Besides, the “A = Ki OH-Flu/Ki compound” value under setting [2] is recorded as less than 0.2.
Take `COc1ccc(Cl)cc1-c1ccc(C#N)c(C(F)(F)F)c1` [EM-3747]: under setting [1], the IC50 is greater than 500 nM. The “A = Ki OH-Flu/Ki compound” value under setting [2] is less than 0.2.
As for `C[S+]([O-])c1ccc(-c2ccc(C#N)c(C(F)(F)F)c2)cc1` (centres unmarked) [EM-3812], the IC50 under setting [1] is greater than 500 nM. For the same compound, the “A = Ki OH-Flu/Ki compound” value under setting [2] is given as less than 0.2.
Take `CN(C)c1ccc(-c2ccc(C#N)c(C(F)(F)F)c2)cc1` [EM-3814]: the IC50 under setting [1] was determined as 150 nM. Also, under setting [2], the “A = Ki OH-Flu/Ki compound” value stood at 0.9.
Turning to `N#Cc1ccc(-c2ccc(C(N)=O)cc2)cc1C(F)(F)F` [EM-3971], under setting [1], the IC50 was greater than 500 nM. In addition, the “A = Ki OH-Flu/Ki compound” value under setting [2] was less than 0.2.
For `N#Cc1ccc(-c2cc(F)cc(F)c2)cc1C(F)(F)F` [EM-3974], in that order: greater than 500 nM and less than 0.2.
Take `N#Cc1ccc(-c2ccc(F)cc2F)cc1C(F)(F)F` [EM-3975]: under setting [1], the half-maximal inhibitory concentration (IC50) is 131 nM. For the same compound, the “A = Ki OH-Flu/Ki compound” value under setting [2] is on record as 0.77.
With `N#Cc1ccc(-c2ccccc2F)cc1C(F)(F)F` [EM-3976], under setting [1], the IC50 is greater than 500 nM. In addition, under setting [2], the “A = Ki OH-Flu/Ki compound” value is less than 0.2.
In the case of `N#Cc1ccc(-c2cccc(F)c2)cc1C(F)(F)F` [EM-3977], the half-inhibitory concentration (IC50) under setting [1] was greater than 500 nM. Also, under setting [2], the “A = Ki OH-Flu/Ki compound” value is on record as less than 0.2.
`N#Cc1ccc(-c2ccc(F)cc2)cc1` [EM-3978]: the IC50 under setting [1] was greater than 500 nM. Further, the “A = Ki OH-Flu/Ki compound” value under setting [2] was less than 0.2.
The matching figures for `CC(O)(c1ccc(-c2ccc(C#N)cc2)cc1)C(F)(F)F` (centres unmarked) [EM-3979]: greater than 500 nM and less than 0.2.
With `CCN(CC)C(=O)c1ccc(-c2ccc(C#N)c(C(F)(F)F)c2)cc1` [EM-3987], the IC50 under setting [1] was greater than 500 nM. The “A = Ki OH-Flu/Ki compound” value under setting [2] was less than 0.2.
With `N#Cc1ccc(-c2ccc(C#N)cc2)cc1` [EM-3993], the IC50 under setting [1] was greater than 500 nM. In addition, under setting [2], the “A = Ki OH-Flu/Ki compound” value is less than 0.2.
`N#Cc1ccc(-c2ccc(C(O)C(F)(F)F)cc2)cc1C(F)(F)F` (centres unmarked) [EM-3998]: under setting [1], the IC50 is greater than 500 nM. Besides, under setting [2], the “A = Ki OH-Flu/Ki compound” value is listed as less than 0.2.
On to `N#Cc1ccc(-c2ccc(C#N)c(C(F)(F)F)c2)cc1C(F)(F)F` [EM-4012], for which the half-maximal inhibitory concentration (IC50) under setting [1] was greater than 500 nM. The “A = Ki OH-Flu/Ki compound” value under setting [2] is reported as less than 0.2.
As to `CC(O)(c1ccc(-c2ccc(C#N)c(C(F)(F)F)c2)cc1)C(F)(F)F` (centres unmarked) [EM-4026], under setting [1], the concentration for half-maximal inhibition (IC50) was greater than 500 nM. Also, the “A = Ki OH-Flu/Ki compound” value under setting [2] is reported as less than 0.2.
For the compound `N#Cc1ccc(-c2ccccc2C(F)(F)F)cc1C(F)(F)F` [EM-4034], the half-inhibitory concentration (IC50) under setting [1] is greater than 500 nM. In addition, the “A = Ki OH-Flu/Ki compound” value under setting [2] is less than 0.2.
As to `COc1ccc(-c2ccc(C#N)cc2)cc1Br` [EM-4036], the IC50 under setting [1] was greater than 500 nM. Also, the “A = Ki OH-Flu/Ki compound” value under setting [2] is reported as less than 0.2.
Regarding `N#Cc1ccc(-c2ccc(F)c(F)c2)cc1C(F)(F)F` [EM-4047], the IC50 under setting [3] was greater than 100 nM. Besides, the “A = Ki OH-Flu/Ki compound” value under setting [2] was less than 1.
On to `N#Cc1ccc(-c2ccc(N)cc2)cc1` [EM-4049], for which the IC50 under setting [1] is greater than 500 nM. Besides, the “A = Ki OH-Flu/Ki compound” value under setting [2] was less than 0.2.
With `N#Cc1ccc(-c2ccc(C(F)(F)F)cc2)cc1C(F)(F)F` [EM-4051], the half-maximal inhibitory concentration (IC50) under setting [1] was greater than 500 nM. In addition, under setting [2], the “A = Ki OH-Flu/Ki compound” value is less than 0.2.
Take `N#Cc1cc(-c2ccc(C#N)c(C(F)(F)F)c2)ccc1F` [EM-4056]: the half-inhibitory concentration (IC50) under setting [1] was greater than 500 nM. The “A = Ki OH-Flu/Ki compound” value under setting [2] was less than 0.2.
As to `N#Cc1ccc(-c2ccc(C#N)c(C(F)(F)F)c2)cc1F` [EM-4065], the half-inhibitory concentration (IC50) under setting [3] was greater than 500 nM. For the same compound, under setting [2], the “A = Ki OH-Flu/Ki compound” value is less than 0.2.
With `Cc1cc(-c2ccc(C#N)c(C(F)(F)F)c2)ccc1C#N` [EM-4069], the IC50 under setting [1] came to 110 nM. The “A = Ki OH-Flu/Ki compound” value under setting [2] amounted to 0.7.
Consider `N#Cc1ccccc1-c1ccc(C#N)c(C(F)(F)F)c1` [EM-4071], for which the half-inhibitory concentration (IC50) under setting [3] was found to be 33 nM. Besides, the “A = Ki OH-Flu/Ki compound” value under setting [2] amounted to 2.5.
As to `Cc1cc(C#N)ccc1-c1ccc(C#N)c(C(F)(F)F)c1` [EM-4079], the IC50 under setting [3] was 78 nM. In addition, the “A = Ki OH-Flu/Ki compound” value under setting [2] was found to be 0.8.
Consider `N#Cc1ccc(-c2ccc(F)c(C(F)(F)F)c2)cc1C(F)(F)F` [EM-4093], for which the half-inhibitory concentration (IC50) under setting [1] was greater than 500 nM. The “A = Ki OH-Flu/Ki compound” value under setting [2] is given as less than 0.2.
As for `N#Cc1cc(F)ccc1-c1ccc(C#N)c(C(F)(F)F)c1` [EM-4096], the concentration for half-maximal inhibition (IC50) under setting [1] was greater than 500 nM. Besides, the “A = Ki OH-Flu/Ki compound” value under setting [2] is on record as less than 0.2.
`N#Cc1ccc(-c2ccc(C#N)c(C(F)(F)F)c2)cc1Cl` [EM-4108]: under setting [1], the IC50 is 112 nM. Moreover, under setting [2], the “A = Ki OH-Flu/Ki compound” value turned out to be 0.6.
`N#Cc1ccc(-c2cc(F)c(F)c(F)c2)cc1C(F)(F)F` [EM-4116]: the IC50 under setting [1] is greater than 500 nM. Moreover, the “A = Ki OH-Flu/Ki compound” value under setting [2] is on record as less than 0.2.
The matching figures for `N#Cc1ccc(-c2ccccc2)cc1C(F)(F)F` [EM-4118]: greater than 500 nM and less than 0.2.
Take `N#Cc1ccc(-c2ccc([N+](=O)[O-])cc2)cc1C(F)(F)F` [EM-4149]: the 50% inhibitory concentration (IC50) under setting [1] was greater than 500 nM. Moreover, under setting [2], the “A = Ki OH-Flu/Ki compound” value was less than 0.2.
As for `N#Cc1ccc(-c2ccc(N)cc2C(F)(F)F)cc1C(F)(F)F` [EM-4154], the IC50 under setting [1] worked out at 145 nM. For the same compound, under setting [2], the “A = Ki OH-Flu/Ki compound” value worked out at 0.7.
For the compound `N#Cc1ccc(-c2ccc(F)cc2C(N)=O)cc1C(F)(F)F` [EM-4171, 4′-Cyano-4-fluoro-3′-trifluoromethyl-biphenyl-2-carboxylic acid amide], the half-maximal inhibitory concentration (IC50) under setting [1] amounted to 943 nM. The “A = Ki OH-Flu/Ki compound” value under setting [2] stood at 0.2.
For `N#Cc1ccc(-c2ccc(Br)c(C(F)(F)F)c2)cc1` [EM-4177], in that order: greater than 500 nM and less than 0.2.
For the compound `N#Cc1ccc(-c2ccc([N+](=O)[O-])c(C(F)(F)F)c2)cc1` [EM-4180], the IC50 under setting [3] is greater than 500 nM. Also, the “A = Ki OH-Flu/Ki compound” value under setting [2] is on record as less than 0.2.
For the compound `Cc1ccc(-c2ccc(C#N)c(C(F)(F)F)c2)c(C(F)(F)F)c1` [EM-4185], the half-maximal inhibitory concentration (IC50) under setting [1] is 193 nM. The “A = Ki OH-Flu/Ki compound” value under setting [2] is reported as 0.7.
As to `N#Cc1ccc(-c2ccc(C#N)c(C(F)(F)F)c2)c(F)c1` [EM-4189], the half-inhibitory concentration (IC50) under setting [1] was found to be 132 nM. Also, the “A = Ki OH-Flu/Ki compound” value under setting [2] is listed as 1.1.

By IC50 is commonly meant the point on the concentration scale where inhibition reaches its midpoint.
